The text below walks through data of publication PMC7616177, “From structure to clinic: Design of a muscarinic M1 receptor agonist with the potential to treat Alzheimer’s disease” (Cell, 2021).

Molecules are shown by their SMILES. Read-outs that look alike come from different tables or passages of the source.

One data set deals with healthy volunteers. As to the kind of experiment: First-time-in-human single ascending dose safety. The format is in vivo. The text has this:
(§1) HTL9936 was progressed into a randomized, double blind, placebo controlled, first time-in-human (FTIH) ascending single and multiple oral dose study in healthy young adult male volunteers and healthy elderly male and female volunteers. (ClinicalTrials.gov Identifier: NCT02291783).
(§2) The required amount of sterile solution was subsequently injected into the infusion bag containing sodium chloride 0.9%w/v infusion fluid to provide the required dose for IV administration.

Data set [1] is described as follows: First-time-in-human single ascending dose safety. The format is in vivo. The following applies: plasma, oral, 175 mg; human SAD; read-out: Cmax at which cholinergic side effects were recorded.
Excerpt: as §1, §2

The target in a further data set is T1, human M1 receptor (Homo sapiens, UniProt P11229).
T1 construct: expressed in transfected cells
T1 sequence (P11229 1-460): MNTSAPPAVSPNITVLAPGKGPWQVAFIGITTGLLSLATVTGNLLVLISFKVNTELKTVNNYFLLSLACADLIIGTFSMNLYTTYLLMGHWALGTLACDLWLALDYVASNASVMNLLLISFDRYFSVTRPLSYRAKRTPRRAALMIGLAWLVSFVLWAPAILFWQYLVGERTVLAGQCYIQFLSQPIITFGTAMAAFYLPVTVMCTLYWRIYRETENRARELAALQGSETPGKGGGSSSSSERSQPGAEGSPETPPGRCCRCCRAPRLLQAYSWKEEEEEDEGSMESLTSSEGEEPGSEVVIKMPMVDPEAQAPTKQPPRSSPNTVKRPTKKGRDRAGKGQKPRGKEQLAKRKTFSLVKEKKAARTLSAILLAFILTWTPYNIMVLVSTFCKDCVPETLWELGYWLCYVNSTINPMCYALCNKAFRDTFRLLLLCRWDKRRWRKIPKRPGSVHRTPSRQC
Kind of data set: M1-receptor functional agonist assays (pERK1/2 and calcium mobilisation) for hits and SAR. The format is cell-based.

For data set [2], the target named is T2, M2-receptor (Homo sapiens, UniProt P08172).
T2 sequence (P08172 1-466): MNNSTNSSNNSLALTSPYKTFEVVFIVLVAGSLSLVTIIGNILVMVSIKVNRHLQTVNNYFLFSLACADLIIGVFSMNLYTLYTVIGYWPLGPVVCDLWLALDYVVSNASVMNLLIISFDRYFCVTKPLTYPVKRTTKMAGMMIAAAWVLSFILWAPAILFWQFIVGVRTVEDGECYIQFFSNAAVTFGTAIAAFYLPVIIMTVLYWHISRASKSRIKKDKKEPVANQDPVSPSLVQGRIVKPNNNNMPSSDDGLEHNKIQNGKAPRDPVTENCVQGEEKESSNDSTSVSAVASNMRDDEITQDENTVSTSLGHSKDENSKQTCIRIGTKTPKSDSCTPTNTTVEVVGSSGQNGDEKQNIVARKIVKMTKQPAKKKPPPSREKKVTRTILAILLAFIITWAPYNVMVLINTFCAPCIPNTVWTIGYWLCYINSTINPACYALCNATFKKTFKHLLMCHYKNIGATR
As to the kind of experiment: M2-receptor functional agonist assay. It counts as cell-based. Details: expressed in transfected cells. As for the experimental part: Functional assays were performed using the Alphascreen Surefire phopho-ERK1/2 assay. […] Once adhered, cells were serum starved overnight. Agonist stimulation was performed by the addition of […] agonist to the cells for a pre-optimized 5 min period (37°C). Media was removed and 50 μl of lysis buffer added. After 15 min a 4 μl sample was transferred to a 384-well plate and 7 μl of detection mixture added.

Data set [3] addresses T2, M2-receptor. Kind of data set: [3H]-NMS equilibrium radioligand binding, M2. As for the experimental part:
Non-specific binding (NSB) was determined in the presence of 1 μM atropine). Reactions were terminated by rapid filtration onto GF/B filter paper (Whatman, Maidstone, UK) and three washes with 3 mL ice-cold 0.9% NaCl using a Brandel harvester (M-24TI; Brandel, Fort Lauderdale, FL). Membrane bound radioactivity was determined by liquid scintillation (Ultima Gold; PerkinElmer) counting.
Data was analyzed using PRISM (GraphPad). For saturation binding, non-specific and total binding data were analyzed to a one site binding model. DPM was converted to fmol/mg to compare across constructs. […] […] The Cheng Prusoff equation was used to estimate pKi ([Cheng and Prusoff, 1973]).

Data set [4] can be described thus: Human plasma and CSF pharmacokinetics after single oral dose. The settings on record: single 54 mg oral dose. The format is in vivo.
Data set [5] can be described thus: Non-human primate exposure. The format is in vivo, non-human primates. The following applies: for Predicted brain exposure Cu,br: non-human primates.
A further data set deals with dogs. Kind of data set: GLP cardiovascular safety pharmacology telemetry in dogs.

Take `CCOC(=O)N1CCC[C@H](N2CCC(C(=O)NC3(C)CCC3)CC2)CC1` [HTL9936, ethyl (S)-4-(4-((1-methylcyclobutyl)carbamoyl)piperidin-1-yl)azepane-1-carboxylate]: in the data set on healthy volunteers (human SAD, 175 mg cohort), the “Subjects with mild cholinergic responses (salivation, sweating, blood pressure/heart rate changes)” value is on record as 3/5. Further, the “Serious adverse events leading to withdrawal” value in the data set on healthy volunteers (human SAD, 1−100mg oral) is “no serious adverse events”. Besides, the “Margin of 242 ng/mL over plasma minimal effective concentration in aged beagle DNMP” value with healthy volunteers (human vs dog 58 ng/mL) was “about 5 ×”. The “Estimated unbound brain exposure at plasma Cmax of 242 ng/mL” value in the data set on healthy volunteers (human, from CSF to plasma ratios 1 to 3 h) is reported as 72 to 259 nM. Moreover, the Cmax in data set [1] turned out to be 242 ng/mL. Further, the EC50 at human M1 receptor is 32 nM; on M2-receptor [2], more than 20 µM. Further, the M2-receptor agonist activity result at M2-receptor [2] is “no detectable agonism”. The same compound showed a Ki on M2-receptor [3] of 3.16 µM. Further, the Tmax in data set [4] (CSF, read-out: Time of maximum concentration in CSF) was 2 to 3 h; in data set [4] (plasma, read-out: Plasma tmax), approximately 0.5 h. Moreover, the entries for the “Predicted brain exposure Cu,br” value in data set [5] (0.3 mg/kg subcutaneous) and in data set [5] (3 mg/kg subcutaneous) were 20 nM and 198 nM, respectively. Further, the Oral bioavailability result in data set [5] (primates) is “low oral bioavailability”. Moreover, the “Time for hemodynamic changes to return to control levels after end of i.v. infusion” value in the data set on dogs (dogs) was not above 30 min. Moreover, the “Blood pressure and heart rate” value with dogs (telemetered dogs, i.v. infusion) is given as “dose-dependent profile of HTL9936 effects on blood pressure, but not heart rate”.
